What was measured:
ABCB1 = molecular target: T1, ABCB1 (Homo sapiens, UniProt P08183); test: Doxorubicin permeability across BBB chip with or without verapamil (efflux pump inhibition); format: in vitro ADME; conditions: FIG. 9C
T1 construct: The BBB model chip comprises iPSC-derived, hypoxia-stimulated or -differentiated BMVECs; endogenous in cells; host or cells: human iPSC (IMR90-4)-derived brain microvascular endothelial cells, co-cultured with astrocytes and pericytes on a microfluidic chip
From the text: Doxorubicin is known as a substrate of ABCB1.

ABCB (P-gp) [1] = molecular target: T2, ABCB (P-gp) (Mus musculus, UniProt P21447); conditions: cited from earlier work
T2 construct: compared to in vivo efflux ratios (2.4-fold) (Cell, 1994, 77, 4)

ABCB (P-gp) [2] = molecular target: T3, ABCB (P-gp) (Homo sapiens, UniProt P08183); conditions: iPS-derived BMVEC generated using published protocol, in vitro; cited from earlier work
T3 construct: host or cells: iPS-derived BMVEC (published protocol)

efflux pump = test: DiOC2 permeability test of efflux pump function in BBB chip; format: in vitro ADME, human; conditions: hypoxia stimulation vs normoxia BBB chip; FIG. 9B
From the text: FIGS. 9A-9C are bar graphs showing the inhibition of the efflux transporter in control and hypoxic stimulated BBB chips by verapamil, MK-571 or KO143. […] All inhibitor-treated samples were independently normalized to the corresponding mock control.
A non-limiting example of assembling a BBB model in a microfluidic chip having flow, using the hypoxia differentiated PSCs-to-BMVECs is as follows. To assemble the BBB model on microfluidic chips, polydimethylsiloxane (PDMS) microfluidic chip was plasma treated (0.5 mbar, 50 W, 2 min) and coated with 0.01% poly-L-lysine solution for 1 hour. Subsequently, 400 ug/ml collagen IV and 100 μg/ml fibronectin were treated to microfluidic chips and incubated overnight in normal cell culture condition (37 C, 5% CO2, 20% O2). A day after coating, ECM solution was rinsed with EC+RA medium. The harvested astrocytes and pericytes were resuspended at 0.7 and 0.3 million cells/mL in EC+RA medium. Mixture of cells was seeded on apical micro-channel, and placed in incubator for 1 hour allowing the cells to adhere to membrane. The differentiated BMVECs on 6-cm plastic culture dish were dissociated using Accutase, harvested, and resuspended 25 million cells/mL in degassed EC+RA media. The differentiated BMVECs were seeded on basal micro-channel, and flip the entire PDMS chip upside down in petri dish to allow the BMVEC to attach to the membrane. […]

T1 sequence (P08183 whole entry): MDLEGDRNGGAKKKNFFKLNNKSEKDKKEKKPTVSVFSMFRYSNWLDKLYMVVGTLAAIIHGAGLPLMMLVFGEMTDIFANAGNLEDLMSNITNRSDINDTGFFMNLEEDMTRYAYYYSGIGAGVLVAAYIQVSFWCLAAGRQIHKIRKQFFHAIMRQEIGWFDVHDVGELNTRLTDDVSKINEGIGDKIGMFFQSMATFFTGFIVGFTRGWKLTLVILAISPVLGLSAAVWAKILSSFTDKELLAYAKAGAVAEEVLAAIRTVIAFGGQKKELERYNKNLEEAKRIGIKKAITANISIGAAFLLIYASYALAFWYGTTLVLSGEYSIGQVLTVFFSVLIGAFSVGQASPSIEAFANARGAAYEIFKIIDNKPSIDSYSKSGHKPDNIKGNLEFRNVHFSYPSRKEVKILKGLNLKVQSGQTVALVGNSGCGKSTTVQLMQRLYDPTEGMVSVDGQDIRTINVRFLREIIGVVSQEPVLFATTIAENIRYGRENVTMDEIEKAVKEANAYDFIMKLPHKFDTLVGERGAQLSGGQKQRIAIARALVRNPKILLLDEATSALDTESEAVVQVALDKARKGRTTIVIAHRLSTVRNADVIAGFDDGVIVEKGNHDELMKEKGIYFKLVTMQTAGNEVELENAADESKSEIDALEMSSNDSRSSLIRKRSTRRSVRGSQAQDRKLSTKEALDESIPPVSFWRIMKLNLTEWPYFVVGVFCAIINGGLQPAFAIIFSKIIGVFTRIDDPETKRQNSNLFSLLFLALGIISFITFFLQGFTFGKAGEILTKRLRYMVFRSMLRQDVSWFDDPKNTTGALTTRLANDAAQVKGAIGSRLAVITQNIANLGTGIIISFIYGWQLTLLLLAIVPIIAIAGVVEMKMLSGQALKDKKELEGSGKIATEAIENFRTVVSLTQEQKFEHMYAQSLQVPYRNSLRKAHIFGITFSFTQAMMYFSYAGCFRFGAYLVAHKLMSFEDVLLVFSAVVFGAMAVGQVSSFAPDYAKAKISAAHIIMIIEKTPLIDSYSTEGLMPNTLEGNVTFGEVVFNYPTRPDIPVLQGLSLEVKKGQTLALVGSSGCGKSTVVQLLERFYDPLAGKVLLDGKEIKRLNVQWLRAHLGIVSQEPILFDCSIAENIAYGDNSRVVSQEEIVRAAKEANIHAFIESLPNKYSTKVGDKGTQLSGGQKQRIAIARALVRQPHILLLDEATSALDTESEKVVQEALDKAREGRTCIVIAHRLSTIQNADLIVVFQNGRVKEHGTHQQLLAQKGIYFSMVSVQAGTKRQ
T3 sequence (P08183 whole entry): as above
T2 sequence (P21447 whole entry): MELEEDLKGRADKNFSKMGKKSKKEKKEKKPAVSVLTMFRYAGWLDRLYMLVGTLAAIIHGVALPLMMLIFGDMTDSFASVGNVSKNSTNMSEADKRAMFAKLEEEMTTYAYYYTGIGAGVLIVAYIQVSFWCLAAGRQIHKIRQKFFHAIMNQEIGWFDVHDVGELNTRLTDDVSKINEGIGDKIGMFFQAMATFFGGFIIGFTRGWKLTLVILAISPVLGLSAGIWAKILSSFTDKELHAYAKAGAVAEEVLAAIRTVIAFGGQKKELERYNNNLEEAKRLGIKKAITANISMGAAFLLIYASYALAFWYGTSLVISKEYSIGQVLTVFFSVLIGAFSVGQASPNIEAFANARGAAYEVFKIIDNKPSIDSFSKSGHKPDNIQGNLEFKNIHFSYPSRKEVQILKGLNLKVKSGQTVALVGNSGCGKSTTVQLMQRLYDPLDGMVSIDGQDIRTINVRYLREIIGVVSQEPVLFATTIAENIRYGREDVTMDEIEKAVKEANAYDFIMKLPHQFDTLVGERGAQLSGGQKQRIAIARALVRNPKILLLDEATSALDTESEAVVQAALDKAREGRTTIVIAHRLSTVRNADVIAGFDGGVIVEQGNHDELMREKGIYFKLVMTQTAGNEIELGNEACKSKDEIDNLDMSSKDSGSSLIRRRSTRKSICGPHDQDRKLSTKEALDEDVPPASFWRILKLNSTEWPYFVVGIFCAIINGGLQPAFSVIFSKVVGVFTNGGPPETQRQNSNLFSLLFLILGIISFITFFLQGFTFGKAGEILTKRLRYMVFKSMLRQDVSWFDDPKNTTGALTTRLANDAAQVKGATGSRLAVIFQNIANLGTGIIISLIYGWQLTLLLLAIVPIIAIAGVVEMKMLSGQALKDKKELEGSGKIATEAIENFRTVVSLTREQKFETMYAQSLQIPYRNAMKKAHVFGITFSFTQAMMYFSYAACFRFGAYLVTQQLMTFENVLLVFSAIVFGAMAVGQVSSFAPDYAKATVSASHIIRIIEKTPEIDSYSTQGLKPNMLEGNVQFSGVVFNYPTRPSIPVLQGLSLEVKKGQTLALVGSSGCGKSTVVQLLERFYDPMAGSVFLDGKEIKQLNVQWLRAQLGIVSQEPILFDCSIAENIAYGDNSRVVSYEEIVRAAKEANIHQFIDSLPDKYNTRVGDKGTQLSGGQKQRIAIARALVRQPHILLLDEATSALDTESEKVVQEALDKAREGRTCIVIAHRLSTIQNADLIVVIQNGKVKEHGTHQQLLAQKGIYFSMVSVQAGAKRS

SMILES | doxorubicin permeability, increase by verapamil treatment (ABCB1; hypoxia BBB chip, verapamil (ABCB1 inhibitor) vs mock control) | change of doxorubicin BBB penetration by verapamil (ABCB1; normoxia control BBB chip) | in vivo efflux ratios (ABCB (P-gp) [1]) | efflux ratio (ABCB (P-gp) [2]) | efflux pump function in DiO2 test (efflux pump)
COc1cccc2c1C(=O)c1c(O)c3c(c(O)c1C2=O)C[C@@](O)(C(=O)CO)C[C@@H]3O[C@H]1C[C@H](N)[C@H](O)[C@H](C)O1 [Doxorubicin, doxorubicin] | 2.7 fold | did not show significant change | 2.4 fold | 1.3 fold | –
CCN1/C(=C/C=C/c2oc3ccccc3[n+]2CC)Oc2ccccc21.[I-] [DiO2] | – | – | – | – | enhanced efflux pump function

Reference: patent US11371022B2, “Blood-brain barrier endothelial cells derived from pluripotent stem cells for blood-brain barrier models” (PRESIDENT AND FELLOWS OF HARVARD COLLEGE, priority 2016, dated 2022)
